Measured values taken from patent US20210395239A1 (Hoffmann-La Roche Inc., priority 2018, published 2021).

Target: T1, hTLR9 (Homo sapiens, UniProt Q9NR96)
T1 sequence (Q9NR96 26-1032): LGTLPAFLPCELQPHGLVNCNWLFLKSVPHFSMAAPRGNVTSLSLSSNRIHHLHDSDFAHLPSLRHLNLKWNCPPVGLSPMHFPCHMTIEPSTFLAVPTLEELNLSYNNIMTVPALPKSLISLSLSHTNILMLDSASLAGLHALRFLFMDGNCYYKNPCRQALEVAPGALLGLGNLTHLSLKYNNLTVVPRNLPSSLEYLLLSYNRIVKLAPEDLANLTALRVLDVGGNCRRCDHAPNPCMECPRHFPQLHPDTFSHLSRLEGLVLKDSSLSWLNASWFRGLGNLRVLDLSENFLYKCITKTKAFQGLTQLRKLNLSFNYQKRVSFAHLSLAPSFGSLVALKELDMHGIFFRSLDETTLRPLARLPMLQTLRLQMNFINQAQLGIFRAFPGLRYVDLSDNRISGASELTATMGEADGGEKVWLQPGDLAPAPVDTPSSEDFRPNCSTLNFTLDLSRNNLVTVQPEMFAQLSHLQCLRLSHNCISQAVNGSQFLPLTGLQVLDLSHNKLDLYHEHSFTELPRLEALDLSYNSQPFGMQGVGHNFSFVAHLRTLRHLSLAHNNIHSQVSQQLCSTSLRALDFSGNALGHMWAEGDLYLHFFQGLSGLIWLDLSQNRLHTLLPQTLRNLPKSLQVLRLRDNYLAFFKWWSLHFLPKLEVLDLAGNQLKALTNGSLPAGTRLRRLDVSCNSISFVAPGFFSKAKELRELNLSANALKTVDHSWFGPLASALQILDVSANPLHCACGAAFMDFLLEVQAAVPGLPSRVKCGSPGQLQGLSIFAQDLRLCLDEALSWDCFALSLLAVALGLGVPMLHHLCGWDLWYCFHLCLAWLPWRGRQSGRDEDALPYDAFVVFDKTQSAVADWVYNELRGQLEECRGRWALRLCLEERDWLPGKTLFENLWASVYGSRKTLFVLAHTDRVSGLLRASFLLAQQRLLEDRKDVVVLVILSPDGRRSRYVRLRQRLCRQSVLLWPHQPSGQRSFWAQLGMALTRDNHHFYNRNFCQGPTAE
Assay: HEK293-Blue-hTLR-9 cells assay (SEAP reporter, ODN2006 stimulation)
Format: cell-based
Set-up: host or cells: HEK293 (HEK-Blue hTLR9)
Details: HEK293-Blue-hTLR9 cells, ODN2006, 20 hrs; read-out: HEK/hTLR9 IC50
Method in brief: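 Antagonism read as lowered SEAP reporter absorbance (620–655 nm, QUANTI-Blue, 2 h, 37 °C) in supernatants. Before that, ODN2006-stimulated HEK293-Blue cells stably expressing human TLR9 were exposed to compound dilutions at 1% final DMSO for 20 h at 37 °C.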

Row | SMILES | IC50 [nM]
1 | CO[C@H]1CN(c2nc(C)cc(N3CCN(C[C@H]4CN(c5ccc(C#N)c6ncccc56)C[C@@H](C)O4)CC3)n2)CC1N (relative stereo) [Example 59, 5-[(2R,6S)-2-methyl-6-[[4-[6-methyl-2-[trans-3-amino-4-methoxy-pyrrolidin-1-yl]pyrimidin-4-yl]piperazin-1-yl]methyl]morpholin-4-yl]quinoline-8-carbonitrile] | 32
2 | COC1CNC[C@H]1Nc1cccc(N2CCN(C[C@H]3CN(c4ccc(C#N)c5ncccc45)C[C@@H](C)O3)CC2)n1 (stereo in doubt) [Example 39, 5-[(2S,6R)-2-[[4-[6-[[(3R,4R)-4-methoxypyrrolidin-3-yl]amino]-2-pyridyl]piperazin-1-yl]methyl]-6-methyl-morpholin-4-yl]quinoline-8-carbonitrile] | 104
3 | COC1CN(c2nccc(N3CCN(C[C@H]4CN(c5ccc(C#N)c6ncccc56)C[C@@H](C)O4)CC3)n2)C[C@H]1N (stereo in doubt) [Example 52, 5-[(2S,6R)-2-[[4-[2-[(3R,4R)-3-amino-4-methoxy-pyrrolidin-1-yl]pyrimidin-4-yl]piperazin-1-yl]methyl]-6-methyl-morpholin-4-yl]quinoline-8-carbonitrile] | 32
4 | CO[C@H]1CN(c2nccc(N3CCN(C[C@H]4CN(c5ccc(C#N)c6ncccc56)C[C@@H](C)O4)CC3)n2)CC1N (stereo in doubt) [Example 53, 5-[(2S,6R)-2-[[4-[2-[(3S,4S)-3-amino-4-methoxy-pyrrolidin-1-yl]pyrimidin-4-yl]piperazin-1-yl]methyl]-6-methyl-morpholin-4-yl]quinoline-8-carbonitrile] | 32
5 | COC1CN(c2ccc(C3CN(C[C@H]4CN(c5cc(=O)n(C)c6ncccc56)C[C@@H](C)O4)C3)cc2)C[C@H]1N (stereo in doubt) [Example 172, 4-[(2S,6R)-2-[[3-[4-[(3R,4R)-3-amino-4-methoxy-pyrrolidin-1-yl]phenyl]azetidin-1-yl]methyl]-6-methyl-morpholin-4-yl]-1-methyl-1,8-naphthyridin-2-one] | 57
6 | C[C@@H]1CN(c2cc(=O)n(C)c3ncccc23)C[C@H](CN2CC(c3ccc(N4CC(F)[C@H](N)C4)cc3)C2)O1 (stereo in doubt) [Example 174, 4-[(2S,6R)-2-[[3-[4-[(3R,4R)-3-amino-4-fluoro-pyrrolidin-1-yl]phenyl]azetidin-1-yl]methyl]-6-methyl-morpholin-4-yl]-1-methyl-1,8-naphthyridin-2-one] | 86

The remaining lines, values ahead:

Row | IC50 [nM] | SMILES
7 | 34 | Cc1cc(N2CCN(C[C@H]3CN(c4ccc(C#N)c5ncccc45)C[C@@H](C)O3)CC2)nc(N2CC(N)C(F)C2)n1 (stereo in doubt) [Example 54, 5-[(2S,6R)-2-[[4-[2-[(3S,4R)-3-amino-4-fluoro-pyrrolidin-1-yl]-6-methyl-pyrimidin-4-yl]piperazin-1-yl]methyl]-6-methyl-morpholin-4-yl]quinoline-8-carbonitrile]
8 | 120 | C[C@@H]1CN(c2ccc(C#N)n3ncc(F)c23)C[C@H](CN2CCN(c3ccc(C4CNCCO4)cc3F)CC2)O1 (stereo in doubt) [Example 183, 3-fluoro-4-[(2S,6R)-2-[[4-[2-fluoro-4-[(2S)-morpholin-2-yl]phenyl]piperazin-1-yl]methyl]-6-methyl-morpholin-4-yl]pyrazolo[1,5-a]pyridine-7-carbonitrile]
9 | 51 | C[C@@H]1CN(c2ccc(C#N)c3ncccc23)C[C@H](CN2CCN(c3cncc(N4CCNCC4)c3)CC2)O1 [Example 7, 5-[(2R,6S)-2-methyl-6-[[4-(5-piperazin-1-yl-3-pyridyl)piperazin-1-yl]methyl]morpholin-4-yl]quinoline-8-carbonitrile]
10 | 93 | C[C@@H]1CN(c2ccc(C#N)c3ncccc23)C[C@H](CN2CCN(c3ccc(N4CCNCC4)cn3)CC2)O1 [Example 8, 5-[(2R,6S)-2-methyl-6-[[4-(5-piperazin-1-yl-2-pyridyl)piperazin-1-yl]methyl]morpholin-4-yl]quinoline-8-carbonitrile]
